Non-standard residues stand in square brackets, D forms with d. No end group written: not given here. Ahx = NCCCCCC(=O)O

The source of these data is patent publication US10881718B2, “Bifunctional conjugate compositions and associated methods” (priority 2010, dated 2021).

Series [1] deals with EAE model induced in SJL/J mice. The series can be described thus: Suppression of EAE by SAgAs and NP-Arrays (Example 1). To be noted: PLP conc. 100 nMol (100* for LABL-only arrays); s.c. days 4, 7, 10. The class given is in vivo. Here is the method: (§1) Induction of EAE and Therapeutic Study.
SJL/J (H-2s) female mice, 4-6 weeks old, were purchased from The Jackson Laboratory and housed under specified, pathogen-free conditions at The University of Kansas. All protocols involving live mice were approved by the Institutional Animal Care and Use Committee. Mice were immunized subcutaneously (s.c) with […] of PLP139-151 in a 0.2 mL emulsion composed of equal volumes of phosphate-buffered saline (PBS) and complete Freund's adjuvant (CFA) containing killed Mycobacterium tuberculosis strain H37RA (final concentration of 4 mg/mL; Difco). The PLP139-151/CFA was administered to regions above the shoulders and the flanks (total of four sites; 50 μL at each injection site). In addition, 200 ng/100 μL of pertussis toxin (List Biological Laboratories Inc.) was injected intraperitoneally (i.p.) on the day of immunization (day 0) and 2 days post-immunization. The mice received s.c. injections of each sample, equivalent to 100 nMol PLP/100 μL, on days 4, 7, 10. All NP samples were sonicated to disperse NPs before injection. For HA samples and controls, 100 μL of each vehicle was injected. […] Body weight was also measured daily.
Statistical differences were determined by comparing treated groups to the negative control (PBS) for clinical disease score and body weight. […]
The SAgAs and NP-Arrays were evaluated in an EAE model induced in SJL/J mice. […]

Another series concerns IFN-γ. Nature of the series: Plasma cytokine analysis (ELISA) in EAE mice: IFN-γ. It counts as in vivo, SJL/J mice. A general note: ELISA stands for enzyme-linked immunosorbent assay.
A further series has as its system TNF-α. Nature of the series: Plasma cytokine analysis (ELISA) in EAE mice: TNF-α. The class given is in vivo, SJL/J mice. As to conditions: day 6; PBS 1.8 pg/mL.
In another series the test system is IL-17. The series can be described thus: Plasma cytokine analysis (ELISA) in EAE mice: IL-17. The class given is in vivo, SJL/J mice.
Series [2] has as its system EAE model induced in SJL/J mice. The series can be described thus: Suppression of EAE by SAgAs: cell adhesion target and size (Example 2). The class given is in vivo. As to conditions: PLP conc. 100 nMol as printed in Table 11. Here is the method: as §1
Four-6 week-old SJL/J female mice were immunized subcutaneously (s.c) with […] of PLP139-151 in a 0.2 mL emulsion composed of equal volumes of complete Freund's adjuvant (CFA) containing killed Mycobacterium tuberculosis strain H37RA (final concentration of 4 mg/mL; Difco) and phosphate-buffered saline (PBS) containing PLP. The PLP139-151/CFA emulsion was administered to regions above the shoulders and the flanks (total of four sites; 50 μL at each injection site). Additionally, 200 ng/100 μL of pertussis toxin (List Biological Laboratories Inc.) was injected intraperitoneally (i.p.) on the day of immunization (day 0) and 2 days post-immunization. […] One hundred μL of each vehicle was injected for all samples and controls. […] Body weight was also measured daily.
Statistical differences were determined by comparing treated groups to the negative control (PBS) for clinical disease score and body weight. […] For individual clinical day scores and cytokine measurements T test was employed. All analyses were performed using GraphPad Software (GraphPad Software Inc.).
Efficacy of SAgAs was evaluated in the EAE model induced in SJL/J mice. The study design is outlined in Table 11 below. Typically disease onset occurs at approximately day 8 and progresses to remission around day 20. […]

Details of series [3]: species or system mice. As to conditions: mouse, in vivo, sc. Here is the method:
In Vivo Imaging. In vivo imaging was completed using the Maestro Imaging Suite. Animals were anesthetized using an isoflurane vaporizer and IR-820 labeled SAgA was injected s.c. at the base of the neck. After injection images were taken of the animal's top, left, bottom, and right side by rotating the animal in the exposure pane. The animal was imaged at defined time points over a 24 hour period to track the drainage and clearance of the SAgA from the injection site.

Method for IFN-γ: (§2) Blood samples were taken from each mouse via mandibular bleeds (˜100 uL) on days 0, 6, 12, 18, 25. To ensure there was enough sample to perform ELISA cytokine testing blood from, two mice within the same group was pooled at each time point for a total of four samples per group. Samples were collected in heparin-containing tubes and centrifuged to separate red blood cells. Plasma was collected and sent for cytokine analysis to the Cytokine Core Laboratory at the University of Maryland. The cytokines analyzed were IL-2, IL-4, IL-10, IL-17, TNF-α, and TGF-β.
Method for IL-17: as §2
Method for TNF-α: as §2

Take “HSLGKWLGHPDKF-AcGAcGAc-ITDGEATDSG (HSLGKWLGHPDKF[Ahx]G[Ahx]G[Ahx]ITDGEATDSG) [PLP-BPI]”: in series [1], the “Clinical Data Significance compared to PBS: % Weight loss” value is reported as “Days 12-16, 18-22, p < 0.01” and the “Clinical Data Significance compared to PBS: Score” value is on record as “Day 12, p < 0.001”. For the same substance, the “reduction in peak expression of IFN-γ compared to PBS controls” value in the series on IFN-γ (Day 6) was about 40%. The “average plasma concentration of IFN-γ” value with IFN-γ (day 6, PBS 72 pg/mL) came to 31 pg/mL. For the same substance, the “plasma TNF-α peak concentration” value in the series on TNF-α is listed as 3.1 pg/mL. Also, the “plasma IL-17 concentration” value in the series on IL-17 (day 6, PBS 23 pg/mL) is on record as 40 pg/mL. Moreover, in the series on IL-17 (day 12), the “plasma IL-17 concentration” value stood at 31 pg/mL. Also, the “Clinical Significance vs PBS: % Weight loss” value in series [2] is given as “p < 0.05, Days 16”. Besides, the “Clinical Significance vs PBS: Score” value in series [2] (s.c. days 4, 7, 10) is recorded as “p < 0.05, Days 14 & 17”.
Take Hyaluronic acid [70 kDa HA]: the “time of drainage/clearance of IR820-labeled material from the injection site” value in series [3] is 500 min.
The same measure, in the same setting: under Hyaluronic acid [HA] stands at most 1440 min.
